Patent US20230257385A1, “SALT AND SOLID FORMS OF TABERNANTHALOG” (priority 2021, published 2023)
Counter-ions that a name gives are not always drawn.

What was measured:
Type in all cases: physicochemical
[1] = Dynamic vapour sorption (DVS) of selected salts (Example 8)
Method in brief: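 Sorption/desorption isotherms on 20–50 mg sample at 25°C after 60 min at 0% RH: 5% steps to 30%, 10% steps to 90%, then reverse. Equilibrium criterion dm/dt 0.002%/min; kinetic and isotherm curves derived.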

[2] = Equilibrium humidity evaluation 75% RH/40° C., 10 days (Example 8, Experiment 6); details: for change in chemical purity (trended HPLC): after 10 days; for powder diffraction pattern versus input (form stability): t=5 days and t=10 days
Method in brief: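 Tabernanthalog salt powders (100 mg) were spread evenly in open vials and held at 40 °C and 75% RH. Sub-samples taken at 5 and 10 days were analysed by ^1H NMR, HPLC, XRPD, DSC, TGA and PLM for phase change, chemical degradation and residual solvent.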

[3] = SIF buffer solubility panel (FaSSIF, FeSSIF, FaSSGF)
[4] = Examination of variability of fusion temperature of sorbate Form A (DSC); details: listed as Experiment 13-Sample C1
Procedure: The factors that were assessed to explain the observed variability in fusion temperature found amongst Form A samples were sample loading, preferred orientation and particle size/homogeneity (Table 271). A weak relationship between sample loading and melt onset was observed, the remainder of the factors examined, appeared to be unrelated.
DSC data were collected from 25 to 220C at a scan rate of at 10° C. min^−1 (Table 292).

[5] = 75% RH/40° C., listed as Tabernanthalog sorbate salt (Form A)
[6] = DSC 25-220° C. at 10° C. min^−1, batches of sorbate salt Form A
[7] = DSC 25 to 220C at 10° C. min−1, tabernanthalog sorbate Form A samples

What does the source list for `COc1ccc2c3c([nH]c2c1)CCN(C)CC3` [tabernanthalog sorbate salt]?
DVS sorption/desorption isotherm ([1]; 0 to 90 to 0% RH, 25° C., dm/dt 0.002%/min): slightly hygroscopic up to 80% RH; DVS 0 to 90 to 0% RH (dm/dt <0.002%), mass change ([1]; desorption, 0.0% RH): −0.06%; DVS mass change ([1]; desorption, 0.0% RH, listed as tabernanthalog sorbate salt (Form A)): 0.06%; DVS mass change ([1]; desorption, 0.0% RH, listed as tabernanthalog sorbate salt (Form I)): −0.06%; DVS 0 to 90 to 0% RH (dm/dt <0.002%), mass change ([1]; desorption, 5.0% RH): −0.05%; DVS mass change ([1]; desorption, 5.0% RH, listed as tabernanthalog sorbate salt (Form A)): 0.05%; DVS mass change ([1]; desorption, 5.0% RH, listed as tabernanthalog sorbate salt (Form I)): −0.05%; DVS 0 to 90 to 0% RH (dm/dt <0.002%), mass change ([1]; desorption, 10.0% RH): −0.04%; DVS mass change ([1]; desorption, 10.0% RH, listed as tabernanthalog sorbate salt (Form A)): 0.04%; DVS mass change ([1]; desorption, 10.0% RH, listed as tabernanthalog sorbate salt (Form I)): −0.04%; DVS 0 to 90 to 0% RH (dm/dt <0.002%), mass change ([1]; desorption, 15.0% RH): −0.03%; DVS mass change ([1]; desorption, 15.0% RH, listed as tabernanthalog sorbate salt (Form A)): 0.03%; DVS mass change ([1]; desorption, 15.0% RH, listed as tabernanthalog sorbate salt (Form I)): −0.03%; DVS 0 to 90 to 0% RH (dm/dt <0.002%), mass change ([1]; desorption, 20.0% RH): −0.02%; DVS mass change ([1]; desorption, 20.0% RH, listed as tabernanthalog sorbate salt (Form A)): 0.02%; DVS mass change ([1]; desorption, 20.0% RH, listed as tabernanthalog sorbate salt (Form I)): −0.02%; DVS 0 to 90 to 0% RH (dm/dt <0.002%), mass change ([1]; desorption, 25.0% RH): −0.007%; DVS mass change ([1]; desorption, 25.0% RH, listed as tabernanthalog sorbate salt (Form A)): 0.00%; DVS mass change ([1]; desorption, 25.0% RH, listed as tabernanthalog sorbate salt (Form I)): −0.007%; DVS 0 to 90 to 0% RH (dm/dt <0.002%), mass change ([1]; desorption, 30.0% RH): 0.00%; DVS mass change ([1]; desorption, 30.0% RH): 0.00%; DVS 0 to 90 to 0% RH (dm/dt <0.002%), mass change ([1]; desorption, 40.0% RH): 0.03%; DVS mass change ([1]; desorption, 40.0% RH): 0.03%; DVS 0 to 90 to 0% RH (dm/dt <0.002%), mass change ([1]; desorption, 50.0% RH): 0.06%; DVS mass change ([1]; desorption, 50.0% RH): 0.06%; DVS 0 to 90 to 0% RH (dm/dt <0.002%), mass change ([1]; desorption, 60.0% RH): 0.18%; DVS mass change ([1]; desorption, 60.0% RH): 0.18%; DVS 0 to 90 to 0% RH (dm/dt <0.002%), mass change ([1]; desorption, 70.0% RH): 0.30%; DVS mass change ([1]; desorption, 70.0% RH): 0.30%; DVS 0 to 90 to 0% RH (dm/dt <0.002%), mass change ([1]; desorption, 80.0% RH): 0.48%; DVS mass change ([1]; desorption, 80.0% RH): 0.48%; DVS 0 to 90 to 0% RH (dm/dt <0.002%), mass change ([1]; desorption, 90.0% RH): 0.98%; DVS mass change ([1]; desorption, 90.0% RH): 0.98%; DVS 0 to 90 to 0% RH (dm/dt <0.002%), mass change ([1]; sorption, 0.0% RH): 0.00%; DVS mass change ([1]; sorption, 0.0% RH, dm/dt<0.002%): 0.00%; DVS 0 to 90 to 0% RH (dm/dt <0.002%), mass change ([1]; sorption, 5.0% RH): 0.0%; DVS mass change ([1]; sorption, 5.0% RH): 0.0%; DVS 0 to 90 to 0% RH (dm/dt <0.002%), mass change ([1]; sorption, 10.0% RH): 0.01%; DVS mass change ([1]; sorption, 10.0% RH): 0.01%; DVS 0 to 90 to 0% RH (dm/dt <0.002%), mass change ([1]; sorption, 15.0% RH): 0.01%; DVS mass change ([1]; sorption, 15.0% RH): 0.01%; DVS 0 to 90 to 0% RH (dm/dt <0.002%), mass change ([1]; sorption, 20.0% RH): 0.02%; DVS mass change ([1]; sorption, 20.0% RH): 0.02%; DVS 0 to 90 to 0% RH (dm/dt <0.002%), mass change ([1]; sorption, 25.0% RH): 0.03%; DVS mass change ([1]; sorption, 25.0% RH): 0.03%; DVS 0 to 90 to 0% RH (dm/dt <0.002%), mass change ([1]; sorption, 30.0% RH): 0.03%; DVS mass change ([1]; sorption, 30.0% RH): 0.03%; DVS 0 to 90 to 0% RH (dm/dt <0.002%), mass change ([1]; sorption, 40.0% RH): 0.05%; DVS mass change ([1]; sorption, 40.0% RH): 0.05%; DVS 0 to 90 to 0% RH (dm/dt <0.002%), mass change ([1]; sorption, 50.0% RH): 0.07%; DVS mass change ([1]; sorption, 50.0% RH): 0.07%; DVS 0 to 90 to 0% RH (dm/dt <0.002%), mass change ([1]; sorption, 60.0% RH): 0.10%; DVS mass change ([1]; sorption, 60.0% RH): 0.10%; DVS 0 to 90 to 0% RH (dm/dt <0.002%), mass change ([1]; sorption, 70.0% RH): 0.14%; DVS mass change ([1]; sorption, 70.0% RH): 0.14%; DVS 0 to 90 to 0% RH (dm/dt <0.002%), mass change ([1]; sorption, 80.0% RH): 0.21%; DVS mass change ([1]; sorption, 80.0% RH): 0.21%; DVS 0 to 90 to 0% RH (dm/dt <0.002%), mass change ([1]; sorption, 90.0% RH): 0.98%; DVS mass change ([1]; sorption, 90.0% RH): 0.98%; CP (chemical purity) after storage ([2]; 75% RH at 40° C., 10 days): 99.70 % area; change in chemical purity (trended HPLC) ([2]; 75% RH/40° C.): did not reduce significantly; change in chemical purity (trended HPLC) [2, 5]: lowest decrease in chemical purity; change in chemical purity (trended HPLC) ([2]; 75% RH/40° C., listed as tabernanthalog sorbate): lowest decrease in chemical purity; water uptake / hydrate formation (TGA, DSC) ([2]; 75% RH/40° C., t=5 d and t=10 d): did not exhibit any water absorption events; powder diffraction pattern versus input (form stability) ([2]; 75% RH/40° C.): matched the diffractogram of the input material; powder diffraction pattern versus input (form stability) [2, 5]: Form A was stable; Tabernanthalog RRT = 1.00 (trended HPLC data, chemical purity) ([2]; Sorbate salt, input before humidity exposure): 99.76; CP (chemical purity) before storage ([2]; input of 6-D): 99.76 % area; solubility in FaSSGF ([3]; FaSSGF, 37° C., up to 24 h (timepoints t=0, 1 h, 3 h, 6 h, 24 h)): remained suspended; disproportionation in the SIF buffers ([3]; SIF buffers): no observed disproportionation; solubility in the SIF buffers ([3]; SIF buffers overall): highly soluble in the SIF buffers (apart from FaSSGF); Endset [4, 6]: 144.5 °C; melt enthalpy [4, 6]: −105.8 Jg^−1; melt onset [4, 6]: 139.9 °C; peak [4, 6]: 142.5 °C; melt enthalpy [4, 7]: −105.78 Jg-1; melt onset [4, 7]: 139.87 °C; Endset ([4]; DSC melt endset, 25 to 220C at 10° C. min−1, tabernanthalog sorbate Form A samples): 144.46 °C; peak ([4]; DSC melt peak, 25 to 220C at 10° C. min−1, tabernanthalog sorbate Form A samples): 142.50 °C
